# Entries after “also recorded” stand apart in the source; their conditions may differ. Structures can show the parent of a compound that is named as a salt.
# What was measured:
# [1] = Example 2: placebo-controlled study of YM087 20 mg IV twice, relief of pulmonary congestion in acute decompensated heart failure; type: in vivo, human; settings: listed as conivaptan, hydrochloride
# Description: The trial explores the effect on relief of pulmonary congestion in patients with a history of NYHA Class II-IV heart failure hospitalized in a monitored unit for acute decompensated heart failure. Patients may be on background therapy optionally with ACE-inhibitors, diuretics, digoxin, and β-blockers as long as these medications (excepting diuretics) were initiated prior to admission. On arrival to the hospital, the patient was assessed for enrollment criteria. If the criteria are met, consent was obtained and the patient enrolled. Patients needing treatment with a parenteral inotropic agent (eg milrinone; dobutamine) or who are intubated are excluded. Respiratory rate will be measured. Clinical laboratory parameters are measured if not assessed within 2 hours of screening. Once consented, the patient's clinical distress was assessed by vital signs, the Acute Heart Failure Score, the Physician/Study Coordinator Clinical Assessment Scale for patient's respiratory and global status, and the Patient Visual Analog Scale for respiratory and global status. […] The baseline respiratory rate was measured 5 minutes prior to administration of study medication (must be ≧24 to meet inclusion criteria). […] Clinical laboratory parameters were assessed 8 and 24 hours after start of the first infusion of study medication. […]
# V2-receptor = target: T1, V2-receptor (Homo sapiens, UniProt P30518); assay: Aquaretic action in normal subjects (evidence of V2-receptor antagonism); type: in vivo; settings: for Dose at which aquaretic action with decrease in urine osmolarity starts: normal subjects
# T1 construct: from tissue; host or cells: healthy human subjects in vivo (renal effect)
# [2] = Safety and tolerability in Phase I studies (approximately 250 subjects); type: in vivo, human
# [3] = Example 3: placebo-controlled study of YM087 40 mg IV twice, relief of pulmonary congestion in exacerbation of congestive heart failure; type: in vivo, human; settings: FIG. 8; listed as conivaptan, hydrochloride
# Description: Patient who meets the inclusion criteria will then be randomized to 1 of 2 treatment group: double-blind treatment phase. […] Patients were administered 100% oxygen for 5 to 10 minutes, and blood gases were measured for assessment of A-a gradient. A baseline respiratory rate is measured 5 minutes prior to administration of study medication (RR must be ≧22 to meet inclusion criteria). […] All patients received usual care at the discretion of the investigator including IV loop diuretics, oxygen, morphine, and IV vasodilators. All patients were administered IV furosemide 20 mg as a minimum dose initially. No additional doses of diuretics should be administered for at least 2 hours after administration of the first dose of study medication; the dose was subsequently adjusted as needed based on the patient's clinical status at the discretion of the investigator. […] Body weight was assessed prior the second dose of study medication. […] During the study, the patient should be receiving the same % oxygen for all respiratory rate and A-a gradient assessments. […] Clinical laboratory parameters were assessed 8 and 24 hours after the first dose of study medication. Serum electrolytes, BUN, and creatinine were measured 4, 8, 12, 18, and 24 hours after administration of the first dose of study medication.
# [4] = test system: AVP-induced platelet aggregation; assay: AVP-induced platelet aggregation in Phase I subjects (evidence of V1A antagonist activity); type: in vivo, human; settings: 20 mg/day orally or 2.5 mg IV
# [5] = Example 1: double-blind, placebo-controlled IV dose-response study of cardiopulmonary hemodynamics in patients with Class III/IV heart failure; type: in vivo, human
# Description: Patients must be receiving background therapy of diuretics, ACE inhibitors, and optionally digoxin and/or β-blocker; patients are stratified as to whether they are receiving concomitant β-blocker treatment. Patients should take their daily dose of concomitant heart failure medications within 2 hours of catheter insertion. No additional doses of background heart failure medications should be administered during the study treatment phase. After insertion of a balloon-flotation pulmonary artery catheter, serial measurements are obtained over an 8-to 18-hour baseline and stabilization period.
# Hemodynamic parameters and vital signs are measured at baseline during the 2 hours prior to drug administration and 30 minutes, 1, 2, 3, 4, 6, 8, and 12 hours after start of the IV infusion. A urethral catheter is placed and urine output is measured hourly for 2 hours prior until 12 hours post-study drug administration. Fluid intake is restricted to 250 mL every 2 hours (except at time of IV infusion) from time of insertion of a Swan-Ganz catheter and throughout the treatment period. […] Serum electrolytes, BUN, creatinine, and serum osmolality are measured at baseline and 4 and 12 hours post treatment. Clinical laboratory and vasopressin plasma levels are measured at baseline and 12 hours post-drug administration. A numeric rating scale for assessing dyspnea is administered at baseline and 12 hours after study drug administration.
# Patients refrain from taking concomitant heart failure medications during the 12-hour treatment period. Patients are stratified as to whether they are receiving concomitant treatment with a β-blocker. Hemodynamic parameters (cardiac output, intrapulmonary and systemic pressures) and vital signs are measured at 0.5, 1, 2, 3, 4, 6, 8, and 12 hours after start of the IV infusion. Clinical laboratory and vasopressin plasma levels are measured 12 hours postdose. […] Serum electrolytes, BUN, creatinine and serum osmolality are measured at 4 and 12 hours posttreatment. Hourly urine output measurements are obtained during the entire 12-hour treatment phase. The numeric rating scale for assessing dyspnea is administered 12 hours postadministration of study medication.
# For this study, hemodynamic efficacy parameters of PCWP, CI, SVR, and PVR are evaluated in terms of their response profile. The response profile is assessed in terms of peak change, and area under the curve (AUC) delimited by the parameter change from baseline and measurement times. The peak change is defined as the maximum change from baseline, within the 3 to 6 hours after treatment administration, in the hemodynamic parameter of interest. The baseline value is considered the last acceptable measurement taken before treatment administration. The AUC is determined using the “linear trapezoidal rule,” which delimits areas of each trapezoid by: two points on the graph of change from baseline against time, perpendiculars from the points to the X-axis, and the X-axis are summed up to get AUC. If measurements are missing at certain times, the AUC are calculated using all other available observations. Dose response over the treatment groups are assessed for selected measures.
# The secondary parameter of urine output is summarized at baseline, and each collection time. In addition, a numeric rating scale is used for assessing dyspnea. The corresponding change from baseline for these parameters is summarized. Descriptive summaries include mean, standard error, median, minimum, and maximum. Other concurrently measured hemodynamic parameters (ie, RA, PAs, PAd, cuff SBP, cuff DBP, calculated MAP, and HR) is also summarized.
# Hemodynamic assessments are obtained at baseline and at 0.5, 1, 2, 3, 4, 6, 8, and 12 hours after administration of study medication.
# [6] = test system: AVP-induced dermal vasoconstriction; assay: AVP-induced dermal vasoconstriction in Phase I subjects; type: in vivo, human; settings: 50 mg IV
# [7] = approximately 250 subjects treated
# T1 sequence (P30518 whole entry): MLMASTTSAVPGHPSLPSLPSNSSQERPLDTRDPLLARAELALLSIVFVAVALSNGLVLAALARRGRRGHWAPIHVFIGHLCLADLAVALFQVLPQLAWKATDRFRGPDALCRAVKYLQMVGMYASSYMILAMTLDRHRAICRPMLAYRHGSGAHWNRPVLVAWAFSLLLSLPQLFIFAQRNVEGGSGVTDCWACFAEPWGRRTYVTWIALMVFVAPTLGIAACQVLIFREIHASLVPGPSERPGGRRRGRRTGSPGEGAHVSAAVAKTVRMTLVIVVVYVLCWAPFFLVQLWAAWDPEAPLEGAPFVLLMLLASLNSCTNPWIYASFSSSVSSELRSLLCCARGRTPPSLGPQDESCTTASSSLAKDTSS
structure (smiles),measurement,setting,value
"Cc1nc2c([nH]1)-c1ccccc1N(C(=O)c1ccc(NC(=O)c3ccccc3-c3ccccc3)cc1)CC2 [YM087, N-[4-(2-methyl-4,5,6-tetrahydroimidazo[4,5-d][1]benzazepin-6-ylcarbonyl)phenyl]biphenyl-2-carboxamide hydrochloride]",Patient visual analog scale of respiratory status,[1]; FIG. 6,improved respiratory status; also recorded: improvement
same,Patient numeric rating scale of respiratory status,[1]; FIG. 7,improved respiratory status; also recorded: improvement
same,Duration of increased urine production rate postdosing,V2-receptor; IV 50 mg/day,≤ 6 h
same,Duration of increased urine production rate postdosing,V2-receptor; IV doses up to 250 μg/kg,up to 3 hours
same,Dose at which aquaretic action with decrease in urine osmolarity starts,V2-receptor; IV,0.05 mg/kg
same,Dose at which aquaretic action with decrease in urine osmolarity starts,V2-receptor; oral,15 mg
same,Tolerability of aquaretic effects at higher doses,"[2]; 120 mg QD or 60 mg BID orally, or 50 mg IV",too uncomfortable to be tolerable
same,Drug-related serious adverse events,[2]; [7],no drug-related serious adverse events were reported
same,Major safety concerns,[2]; [7],no major safety concerns were identified
same,Urinary osmolarity,[2]; at higher doses,decreased
same,Plasma osmolarity,"[2]; at higher doses, with or without an increase in plasma sodium",increased
same,Biochemical or hematological laboratory parameters,"[2]; human, in vivo",No drug-related trend
same,Most frequent adverse events regardless of treatment association,"[2]; human, in vivo",mild or moderate thirst and mild headache
same,Vital signs (blood pressure and heart rate),"[2]; human, in vivo",unaffected
same,Other adverse events,"[2]; human, in vivo, hydrochloride","flushes, a sensation of cold extremities, abdominal complaints, abnormal stools, syncope, dizziness, palpitations, and postural hypotension"
same,Grand mal seizure,"[2]; one patient with severe heart failure, 40 mg BID",grand mal seizure that was possibly related to YM087
same,Leukopenia / decrease in white blood cell counts,"[2]; three subjects who received YM087, one who received placebo, hydrochloride","minor, reversible decrease in white blood cell counts; also recorded: minor, reversible leukopenia"
same,Alveolar-arterial gradient compared to placebo,[3],improved; also recorded: apparent improvement
same,Inhibition of AVP-induced platelet aggregation,[4],Inhibition
same,Reduction of right atrial pressure (RAP),"[5]; 40 mg IV dose, FIG. 1",≤ 3 mm Hg
same,Reduction of pulmonary artery systolic pressure (PAs),"[5]; 40 mg IV dose, FIG. 2",≤ 4 mm Hg
same,Right atrial pressure (RAP),[5]; FIG. 1,reduce
same,Pulmonary artery systolic pressure (PAS),[5]; FIG. 2,reduce
same,Mean arterial pressure (MAP),[5]; FIG. 3,no effect
same,Systolic blood pressure (SBP),[5]; FIG. 4,no effect
same,Systemic hemodynamics,"[5]; human, in vivo",no effect
same,Changes in inspiratory crackles compared to placebo,"[5]; post IV dose of 10, 20, 40 mg, FIG. 9",fewer patients on conivaptan had worsened inspiratory crackles
same,Inhibition of AVP-induced dermal vasoconstriction,[6],Total inhibition

# From US6740648B2, “Treatment of pulmonary hypertension” (Warner-Lambert Company, priority 2000, dated 2004)
